Values quoted from earlier work in patent US12605340B2, “Extended release composition of 2-(2-Aminothiazol-4-yl)-N-[4-(2{[(2R)-2-hydroxy-2-phenylethyl] amino} ethyl) phenyl] acetamide” (Zim Laboratories Limited, priority 2020, dated 2026).
Read-outs that look alike come from different tables or passages of the source.

## Nc1nc(CC(=O)Nc2ccc(CCNC[C@H](O)c3ccccc3)cc2)cs1 [Mirabegron, 2(2-aminothiazol-4-yl)-N-[4-(2-{[(2R)-2-hydroxy2phenylethyl]amino}ethyl)phenyl] acetamide]
In dimethyl sulfoxide
  Solubility: soluble
In methanol
  Solubility: soluble
In water
  Solubility: practically insoluble
